From patent US20220257764A1, “USE OF DIKETONE COMPOUND IN PHOTODYNAMIC THERAPY OR DIAGNOSIS” (BEIJING WHOLESOMETECH CO., LTD., priority 2019, published 2022)
Read-outs that look alike come from different tables or passages of the source.

Key:
Format in all cases: cell-based
[1] = system: B16 melanoma cell; assay: MTT toxicity to tumor cells, under light and in the dark; conditions: Mus musculus, under light, 450-480 nm laser, 110 mW/cm^2, 900 s
Protocol: (§1) In this experimental example, the toxicity of the compound to tumor cells was tested by an MTT method including the following specific steps.
(§2) (1) Logarithmic cells were collected, the concentration of a cell suspension was adjusted, the cell suspension was added to a cell culture plate in a dose of 100 μL per well, and the cells were then added to a cell culture plate so that the density of the cells to be tested was adjusted to 1000-10000 wells (edge wells were filled with sterile PBS).
(§3) (2) The cells were incubated at 37° C. in the presence of 5% CO2 until the cells in a single layer covered the bottom of each well (96-well flat-bottom plate), and a drug in concentration gradients was added. Generally, the drug in 5 to 7 gradients was added in a dose of 100 μL per well, and 3 to 5 multi-wells were set.
(§4) (3) The cells were randomly divided into treated groups under light and treated groups in the dark, incubated at 37° C. in the presence of 5% CO2 for 16 h to 48 h, and observed with an inverted microscope.
(§5) (4) The cells were irradiated for 900 s with a laser having a wavelength of 450 nm to 480 nm (at an intensity of 110 mW/cm^2), and the final light dose was about 100 J/cm^2. After light irradiation, the cells were washed with PBS.
(§6) (5) An MTT solution (5 mg/ml, 0.5% MTT) was added in a dose of 20 μL per well to further incubate the cells for 4 h. If the drug could react with the MTT, centrifuging was carried out first, and then the culture solution was discarded and the cells were carefully washed twice or three times with PBS, and then the culture solution containing MTT was added.
(§7) (6) The culture was terminated and the culture solution in the wells was carefully removed.
(§8) (7) Dimethyl sulfoxide was added in a dose of 150 μL per well, and the plate was then shaken on a shaker at a low speed for 10 min to fully dissolve crystals. The absorbance at OD 490 nm of each well was measured with enzyme-linked immunoassay.
(§9) (8) Zero adjustment wells (medium, MTT, dimethyl sulfoxide) and control wells (cells, dissolving media of the same concentration, culture solution, MTT, dimethyl sulfoxide) were set at the same time.

[2] = system: Hela cells; assay: as above; conditions: Homo sapiens
Protocol: as §1, §2, §3, §4, §5, §6, §7, §8, §9

[3] = system: SW480 colon cancer cells; assay: as above; conditions: Homo sapiens
Protocol: as §1, §2, §3, §4, §5, §6, §7, §8, §9

[4] = system: Escherichia coli; assay: Inhibitory effect on bacteria (colony counting), under light and in the dark
Protocol: A single Escherichia coli colony was transferred from a solid Luria Bertani (LB) agar plate to 5 ml liquid LB medium and incubated at 37° C. for 12 h. Bacteria were collected by centrifugation (7000 rpm, 1 min) and washed with PBS buffer three times. The supernatant was discarded, and the remaining Escherichia coli cells were resuspended in the PBS buffer. The bacterial suspension was adjusted to make its optical density (OD600) to 1.0. The suspension was then diluted (5 times) with PBS buffer. The diluted Escherichia coli cell suspension was incubated in the dark at 37° C. for 15 min in the presence of a photosensitizer (diketone compound) solution with a concentration of 60 mM, and then irradiated for 200 s under a 15 mW/cm^2 laser light (with a wavelength of 450 nm to 480 nm and in the final light dose of about 3 J cm^2), and after the irradiation the bacterial suspension was serially diluted (10^4 times) with PBS buffer. 100 μL of the diluted bacterial Escherichia coli cell was dispersed on a solid LB agar plate and incubated at 37° C. for 12 h to 16 h, and colonies formed were counted. In the meanwhile, a treated group in the dark and an untreated group in the dark were set; the inhibition rate was determined by dividing the number of colony forming units (cfu) killed in the treated group under light or the treated group in the dark by the number of colony forming units (cfu) killed in the untreated group in the dark.

[5] = system: human immortalized keratinocyte (Hacat cells); assay: MTT cytotoxicity to normal cells, Experimental Example 5; conditions: given under red light, 630-650 nm, 110 mW/cm^2, 900 s, 3 h incubation
Protocol: (1) Logarithmic phase cells were collected, the concentration of a cell suspension was adjusted, the cell suspension was added to a cell culture plate in a dose of 100 μL per well, and the cells were then added to a cell culture plate so that the density of the cells to be tested was adjusted to 1000-10000 wells (edge wells were filled with sterile PBS). […] Generally, the drug in 5 to 7 gradients was added in a dose of 100 μL per well, and 3 to 5 wells were set for each concentration of a drug. […] Cells in the experimental photosensitizer-light irradiation group were incubated for 15 min and then irradiated with light. […] After light irradiation, the cells were washed with PBS. […] After light irradiation, the cells were washed with PBS. […] If the drug could react with the MTT, centrifuging was carried out first, and then the culture solution was discarded and the cells were carefully washed twice or three times with PBS, and then the culture solution containing MTT was added. (6) The culture was terminated and the culture solution in the wells was carefully removed. (7) Dimethyl sulfoxide was added in a dose of 150 μL per well, and the plate was then shaken on a shaker at a low speed for 10 min to fully dissolve crystals. The absorbance at OD 490 nm of each well was measured with enzyme-linked immunoassay. […]

[6] = under light, 450-480 nm laser, 110 mW/cm^2, 900 s
[7] = SW480, under light, 450-480 nm laser, 110 mW/cm^2, 900 s
[8] = 60 mM, 450-480 nm laser, 15 mW/cm^2, 200 s, read-out: Inhibition rate under light
[9] = 60 mM, in the dark, read-out: Inhibition rate in the dark
[10] = read-out: Inhibition rate in the dark
[11] = read-out: Inhibition rate under light

In the case of CCCCC(=O)C(C)=O [BJMU-205], the IC50 [1] is reported as 6.6 ± 1.8 µM, the IC50 [2, 6] is reported as 5.7 ± 1.7 µM and the IC50 [3, 7] is reported as 6.4 ± 1.9 µM. The inhibition at 60000 µM [4, 8] was 80% and the inhibition at 60000 µM [4, 9] was 2%.
CCCC(=O)C(C)=O [BJMU-202] was tested, and the IC50 [1] was 2.9 ± 0.1 µM, the IC50 [2, 6] was 2.6 ± 0.6 µM and the IC50 [3, 7] was 2.5 ± 0.5 µM. For the same compound, the inhibition at 60000 µM [4, 8] was 90 ± 3% and the inhibition at 60000 µM [4, 9] was 8.6%.
With CC(=O)C(=O)CC(C)C [BJMU-206] the IC50 [1] was 144 ± 32.5 µM, the IC50 [2, 6] was 141 ± 37.4 µM and the IC50 [3, 7] was 144 ± 31.9 µM. The inhibition at 60000 µM [4, 8] was 46% and the inhibition at 60000 µM [4, 9] was 11.5%.
O=C(C(=O)c1ccccc1)c1ccccc1 [BJMU-209] gave an IC50 ([2]; in the dark) of 8200 ± 530 µM, an IC50 [3, 7] of 7800 ± 480 µM and an inhibition at 60000 µM [4, 10] of 9.5%. The inhibition at 60000 µM [4, 11] was 26%.
COc1ccc(C(=O)C(=O)c2ccc(OC)cc2)cc1 [BJMU-213] showed an IC50 ([2]; in the dark) of 6400 ± 400 µM and an IC50 [3, 7] of 6600 ± 370 µM.
With O=C(C(=O)c1ccc(Br)cc1)c1ccc(Br)cc1 [BJMU-211] the IC50 ([3]; SW480, in the dark) was 95000 ± 21300 µM and the IC50 [3, 7] was 3200 ± 230 µM.
With O=C(O)C(=O)c1ccccc1 [BJMU-207] the IC50 [1] was 96.6 ± 26.3 µM, the IC50 [2, 6] was 93.3 ± 20.3 µM and the IC50 [3, 7] was 99.2 ± 25.7 µM. The inhibition at 60000 µM [4, 8] was 64% and the inhibition at 60000 µM [4, 9] was 7.3%.
Compound CCC(=O)C(=O)CC [BJMU-201] has an IC50 ([2]; in the dark) of 59.9 ± 9.9 µM, an IC50 [3, 7] of 63.9 ± 10.5 µM and an inhibition at 60000 µM [4, 10] of 4.9%. For the same compound, the inhibition at 60000 µM [4, 11] was 58%.
For CC(=O)C(=O)CBr [BJMU-203], the IC50 [1] was 2.7 ± 0.9 µM, the IC50 [2, 6] was 2.8 ± 1.1 µM and the IC50 [3, 7] was 3.1 ± 0.5 µM. For the same compound, the inhibition at 60000 µM [4, 8] was 93% and the inhibition at 60000 µM [4, 9] was 4.5%.
With NCC(=O)CCC(=O)O [ALA, 5-α aminolevulinic acid, reference compound] the “cytotoxicity to Hacat cells” value [5] was “relatively high cytotoxicity”.
Compound O=C(C(=O)c1ccc(F)cc1)c1ccc(F)cc1 [BJMU-212] has an IC50 ([3]; SW480, in the dark) of 99000 ± 15800 µM and an IC50 [3, 7] of 2800 ± 210 µM.
O=C(C(=O)c1ccco1)c1ccco1 [BJMU-214] gave an IC50 [1] of 9000 ± 510 µM, an IC50 [2, 6] of 8800 ± 480 µM and an IC50 [3, 7] of 8900 ± 500 µM. It also gave an inhibition at 60000 µM [4, 8] of 23% and an inhibition at 60000 µM [4, 9] of 5.6%.
For O=C(C(=O)c1ccncc1)c1ccncc1 [BJMU-210], the IC50 [1] was 9800 ± 700 µM, the IC50 [2, 6] was 9900 ± 700 µM and the IC50 [3, 7] was 9600 ± 600 µM. The inhibition at 60000 µM [4, 8] was 24% and the inhibition at 60000 µM [4, 9] was 6.4%.
Compound CC(=O)C(=O)O [BJMU-208] has an IC50 [1] of 174 ± 10.9 µM, an IC50 [2, 6] of 162 ± 10.1 µM and an IC50 [3, 7] of 173 ± 10.8 µM. For the same compound, the inhibition at 60000 µM [4, 8] was 45% and the inhibition at 60000 µM [4, 9] was 8%.
